Bounds are passed on as bounds.

Series [1] can be described thus: Solid solubility assay, phosphate buffer pH 7.4. The format is physicochemical. The settings on record: phosphate buffer pH 7.4, dry substance.
Series [2] in a line: Co-factor experiment: microsome suspension with and without NADPH. The format is in vitro ADME, human. The settings on record: for Co-factor experiment: degradation with and without addition of NADPH compared; for microsomal CLint: human, human microsome suspension, both with and without the addition of NADPH, read-out: intrinsic clearance. As for the experimental part: Therefore, additional experiments comparing stability with and without the addition of NADPH cofactor and a very short incubation period were performed (Tables S4 and S5). […] Due to the rapid observed degradation in microsomes, we decided to investigate the stability of five compounds in human plasma, aiming for a broad range of stabilities (Table 2, Table S6). It should be noted that esterase-labile compounds are notoriously difficult to study in microsomal stability studies.[36]
Table S3 Evaluation of metabolic stability in human microsomes
No. Metabolic stability Comment
4k <10/<10 Low retention in chromatography
8 <10/<10 Low retention in chromatography.
Table S4 Results from the modified microsome assay where degradation with and without the addition of NADPH was compared […]
4d Very low peak area for the first time point,
4e Very low peak area for the first time point,
4f Very low peak area for the first time point,
5 Very low peak area for the first time point,
8 No degradation without co -factor […]
metabolism by the microsomes (consisting mainly of cytochrome P450 enzymes) or if it was due to other factors, the compounds (with the exception of 4k) were incubated in the microsome suspension both with and without the addition of NADPH. Samples […]
(§1) were taken at three timepoints, and the degradation was compared to determine if it was dependent on NADPH. Compound 4k […]
(§2) without the addition of NADPH. […]
(§3) microsomes that need to be activated by a co -factor.
(§4) Table S5 Percent of peak area found in microsome suspension 15 seconds after the addition of NADPH in comparison with the same amount dissolved in H2O/EtOH
(§5) No. Area at 0.25 min. in Area in solution % found in microsomes/NADPH (125 nM) microsome
(§6) Comparison with compounds in solution. A comparison was made between the peak area of the compounds in solution with that obtained in the microsome suspension directly after the addition of NADPH (about 0.25 minutes) (Table S5). Before the addition of NADPH, the compounds are equilibrated in the microsome suspension for approximately five minutes. All compounds were prepared in solution by diluting a portion of the DMSO solutions with H2O/EtOH (75:25) to 125 nM (the final concentration of compounds for analysis in the microsome assay).
(§7) For the compounds where no results from the microsome assay could be reported due to low peak area (4d, 4e, 4f & 5), less than one percent of the expected peak area as compared with the area in solution was detected. […]
(§8) degrade rapidly before the addition of the co-factor after five minutes in incubation. For compounds 4g, 4h, 4i & 4j, which were […]
(§9) higher relative peak areas were found. […]
(§10) without NADPH was only found at 15% of the area seen in solution in the microsome suspension.

Series [3] can be described thus: Peak area in microsome suspension compared with compounds in solution. To be noted: peak area 15 seconds after addition of NADPH versus same amount (125 nM) in H2O/EtOH. The format is in vitro ADME, human. As for the experimental part:
as §1, §2, §3, §4, §5, §6, §7, §8, §9, §10

Series [4] can be described thus: Chemical stability in 1.0 M NaHCO3 and 1.0 M HCl.
A short description of series [5]: Solubility, screen method, phosphate buffer pH 7.4, 1% DMSO. The format is physicochemical. To be noted: phosphate buffer with 1% DMSO; 100 mM phosphate buffer pH 7.4, 1% DMSO; assay range 0.1 to 100 μM.
The conditions of series [6]: mice dosed with psilocybin or 4-AcO–DMT; cited from earlier work.

As to `CN(C)CCc1c[nH]c2cccc(OP(=O)(O)O)c12` [Compound 8, 4-phosphoryloxy-N,N-dimethyltryptamine, reference compound], the solubility at 24 h in series [1] is > 1000 µM. Also, the Co-factor experiment result in series [2] is reported as “No degradation without co-factor”. Besides, in series [3], the “% found in microsome suspension” value was found to be 81.5%. Also, the half-life at 5 mM in series [4] (1.0 M HCl) is > 167 h. The compound also came in with a half-life at 24 h, 5 mM in series [4] (1.0 M NaHCO3) of 250 h.
As for `CN(C)CCc1c[nH]c2cccc(OC(=O)C3CC3)c12.O=C(O)/C=C/C(=O)O` [Compound 4g], in series [5], the solubility is > 90 µM. Further, in series [2], the Co-factor experiment entry is given as “Degradation without co-factor” and the microsomal CLint is > 200 µL/min/mg. The “% found in microsome suspension” value in series [3] is listed as 58%. The compound further gave a half-life at 24 h, 5 mM in series [4] (1.0 M HCl) of 100 h. Besides, in series [4] (1.0 M NaHCO3), the half-life at 24 h, 5 mM is 183 h.
Compound `CC(=O)Oc1cccc2[nH]cc(CCN(C)C)c12.O=C(O)/C=C/C(=O)O` [Compound 4a, 4-acetoxy-N,N-dimethyltryptamine] gave a solubility in series [5] of 77 µM. Besides, in series [2], the Co-factor experiment result is recorded as “Degradation without co-factor” and the microsomal CLint was > 200 µL/min/mg. Moreover, in series [3], the “% found in microsome suspension” value came to 0.0%. Also, in series [6], the “psilocin exposure compared with psilocybin” value is “nonsignificant difference in psilocin exposure”. Besides, the half-life at 24 h, 5 mM in series [4] (1.0 M HCl) worked out at 5 h. Moreover, the half-life at 24 h, 5 mM in series [4] (1.0 M NaHCO3) worked out at 15 h.
As for `CN(C)CCc1c[nH]c2cccc(OCc3ccccc3)c12` [Compound 3, 4-Benzyloxy-N,N-dimethyltryptamine], in series [5], the solubility was > 90 µM. The Co-factor experiment entry in series [2] was “No degradation without co-factor”. Besides, the “% found in microsome suspension” value in series [3] stood at 88.5%. Further, the half-life at 5 mM in series [4] (1.0 M HCl) and in series [4] (1.0 M NaHCO3) was > 167 h in each case.
In turn, `CCOC(=O)Oc1cccc2[nH]cc(CCN(C)C)c12.O=C(O)/C=C/C(=O)O` [Compound 4i] gave a solubility in series [5] of 88 µM. In series [2], the Co-factor experiment result is listed as “Degradation without co-factor” and the microsomal CLint is > 200 µL/min/mg. Also, the “% found in microsome suspension” value in series [3] is reported as 7.1%. Also, the half-life at 5 mM in series [4] (1.0 M HCl) was > 167 h. Moreover, the half-life at 24 h, 5 mM in series [4] (1.0 M NaHCO3) was determined as 50 h.

Source of the values: publication PMC11997985, “Synthesis and In Vitro Profiling of Psilocin Derivatives: Improved Stability and Synthetic Properties” (Journal of Medicinal Chemistry, 2025).
